The target of experiment [1] is T1, proMMP13(1-268) (SEQ ID NO:7), activation by plasmin (Homo sapiens, UniProt P45452).
T1 construct: 6xHis (C); made in house; host or cells: HEK293 (proMMP13, secreted)
As to the kind of experiment: ProMMP13/Plasmin P126 Activation Assay. It is filed as biochemical. The protocol:
ProMMP13/Plasmin P126 Activation Assay
On the day of assay, proMMP13(1-268) (SEQ ID NO:7) purified from HEK293 cells and plasmin were diluted to 160 nM and 320 nM, respectively, in assay buffer. The reaction volume was 50 μL. […] The plate was sealed and incubated for 40 min at 37° C. […] Plasmin was not reactive towards P-126 substrate under these conditions.

Experiment [2] deals with T2, proMMP9(67-444;ΔFnII) (SEQ ID NO:5) (Homo sapiens, UniProt P14780, DEL216-390).
T2 construct: start methionine (N); made in house; host or cells: E. coli BL21(DE3) RIL
T2 sequence (P14780 with tags, fused parts or gaps DEL216-390): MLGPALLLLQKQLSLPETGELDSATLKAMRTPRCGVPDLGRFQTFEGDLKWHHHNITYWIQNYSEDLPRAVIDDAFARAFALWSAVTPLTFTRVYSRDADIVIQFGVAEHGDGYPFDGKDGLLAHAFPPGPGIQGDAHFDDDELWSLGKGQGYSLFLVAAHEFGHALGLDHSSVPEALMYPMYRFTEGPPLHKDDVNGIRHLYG
Nature of the experiment: ThermoFluor binding assay with proMMP9(67-444;ΔFnII). The procedure, abridged:
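Thermal shift with 3.5 μM desalted proMMP9(67-444;ΔFnII) and 50 μM 1,8-ANS in 50 mM HEPES pH 7.0, 100 mM NaCl, 0.001% Tween-20, 2.5 mM MgCl2, 300 μM CaCl2; compounds serially diluted. Heated 40–90 °C at 1 °C/min, fluorescence at 500 nm; Tm fit, binding modelled using DSC-derived thermodynamic parameters.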
(Differential scanning fluorimetry follows unfolding on heating by fluorescence.)

Experiment [3] concerns the target T3, proMMP13(1-268) (SEQ ID NO:7) (Homo sapiens, UniProt P45452).
T3 construct: 6xHis (C); made in house; host or cells: HEK293 (transient, secreted)
Nature of the experiment: ThermoFluor binding assay with proMMP13(1-268). The protocol: The ThermoFluor® (TF) assay is a 384-well plate-based binding assay that measures thermal stability of proteins (Biomol Screen 2001, 6, 429-40; Biochemistry 2005, 44, 5258-66). The experiments were carried out using instruments available from Johnson & Johnson Pharmaceutical Research & Development, LLC. TF dye used in all experiments was […] (1,8-ANS) (Invitrogen: A-47).
Compounds were arranged in a pre-dispensed plate (Greiner Bio-one: 781280), wherein compounds were serially diluted in 100% DMSO across 11 columns within a series. Columns 12 and 24 were used as DMSO reference and contained no compound. For multiple compound concentration-response experiments, the compound aliquots ([…]) were robotically predispensed directly into black 384-well polypropylene PCR microplates (Abgene: TF-0384/k) using a Cartesian Hummingbird liquid handler (DigiLab, Holliston, Mass.). Following compound dispense, protein and dye solutions were added to achieve the final assay volume of 3 μL. The assay solutions were overlayed with 1 μL of silicone oil (Fluka, type DC 200: 85411) to prevent evaporation.
Assay plates were robotically loaded onto a thermostatically controlled PCR-type thermal block and then heated from 40 to 90° C. at a ramp-rate of 1° C./min for all experiments. Fluorescence was measured by continuous illumination with UV light (Hamamatsu LC6) supplied via fiber optics and filtered through a band-pass filter (380-400 nm; >60D cutoff). Fluorescence emission of the entire 384-well plate was detected by measuring light intensity using a CCD camera (Sensys, Roper Scientific) filtered to detect 500±25 nm, resulting in simultaneous and independent readings of all 384 wells. A single image with 20-sec exposure time was collected at each temperature, and the sum of the pixel intensity in a given area of the assay plate was recorded vs temperature and fit to standard equations to yield the Tm (J Biomol Screen 2001, 6, 429-40).
Thermodynamic parameters necessary for fitting compound binding for each proMMP were estimated by differential scanning calorimetry (DSC) and from ThermoFluor® data. The heat capacity of unfolding for each protein was estimated from the molecular weight and from ThermoFluor® dosing data.
ThermoFluor® with proMMP13(1-268) (SEQ ID NO: 7)
The proMMP13(1-268) (SEQ ID NO:7) protein sample preparations included a desalting buffer exchange step via a PD-10 gravity column (GE Healthcare). The desalting buffer exchange was performed prior to diluting the protein to the final assay concentration of 3.5 μM. The concentration of proMMP13(1-268) (SEQ ID NO:7) was estimated spectrophotometrically based on a calculated extinction coefficient of ε280=37000 M^−1cm^−1, a calculated molecular weight of 30.8 kDa, and calculated pI of 5.33. ThermoFluor® reference conditions were defined as follows: 100 μg/mL proMMP13(1-268) (SEQ ID NO:7), 25 μM 1,8-ANS, pH 7.0 Buffer (50 mM HEPES pH 7.0, 100 mM NaCl, 0.001% Tween-20, 2.5 mM MgCl2, 300 μM CaCl2). The thermodynamic parameters for proMMP13(1-268) (SEQ ID NO:7) are as follows: Tm (° C.)=67 (+/−0.1), ΔUH(Tm) (cal mol^−1)=107000(+/−5000), ΔUS(Tm) (cal mol^−1 K^−1)=318, ΔUCp (cal mol^−1 K^−1)=2600.

For experiment [4], the target named is T4, full-length proMMP9(1-707) (SEQ ID NO:1), activation by catalytic MMP3 (Homo sapiens, UniProt P14780, R574P).
T4 construct: made in house; host or cells: HEK293 (proMMP9, secreted); E. coli (MMP3)
Nature of the experiment: proMMP9/MMP3 P126 Activation Assay. It is filed as biochemical. The procedure: proMMP9/MMP3 P126 Activation Assay
The reaction volume was 50 μL. […] Reactivity of residual MMP3 towards P-126 substrate was minimal under these conditions.

In experiment [5] the target is T5, proMMP9(20-445;ΔFnII) (SEQ ID NO:6) (Homo sapiens, UniProt P14780, DEL216-390).
T5 construct: start methionine (N); made in house; host or cells: E. coli BL21(DE3) RIL
T5 sequence (P14780 with tags, fused parts or gaps DEL216-390): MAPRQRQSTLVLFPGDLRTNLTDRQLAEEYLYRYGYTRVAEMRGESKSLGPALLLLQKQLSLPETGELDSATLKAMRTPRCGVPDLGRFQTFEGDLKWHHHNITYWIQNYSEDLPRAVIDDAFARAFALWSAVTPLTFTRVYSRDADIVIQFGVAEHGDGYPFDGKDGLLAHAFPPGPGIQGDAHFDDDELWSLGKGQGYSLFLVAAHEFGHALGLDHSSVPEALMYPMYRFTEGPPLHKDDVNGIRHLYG
As to the kind of experiment: ThermoFluor binding assay with proMMP9(20-445;ΔFnII). The essentials: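 Thermal-shift binding using 2.8 μM proMMP9(20-445;ΔFnII) with 50 μM 1,8-ANS in 50 mM HEPES pH 7.0, 100 mM NaCl, 0.001% Tween-20, 2.5 mM MgCl2, 300 μM CaCl2. Compound serially diluted; heated 40–90 °C at 1 °C/min, fluorescence 500 nm. Tm shifts fitted using DSC/ThermoFluor-derived thermodynamic parameters.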

In experiment [6] the target is T6, full-length proMMP9(1-707) (SEQ ID NO:1) from COS-1 cells, activation by catalytic MMP3 (Homo sapiens, UniProt P14780, R574P).
T6 construct: made in house; host or cells: COS-1 (proMMP9, secreted); E. coli (MMP3)
Nature of the experiment: ProMMP9/MMP3 DQ Gelatin Activation Assay. It is filed as biochemical. The note with it: read-out: ProMMP9/MMP3 DQ gel Activation Assay, IC50. From the text:
ProMMP9/MMP3 DQ Gelatin Activation Assay

Where a name gives a salt, the structure may show the parent alone.

T4 sequence (P14780 20-707 R574P): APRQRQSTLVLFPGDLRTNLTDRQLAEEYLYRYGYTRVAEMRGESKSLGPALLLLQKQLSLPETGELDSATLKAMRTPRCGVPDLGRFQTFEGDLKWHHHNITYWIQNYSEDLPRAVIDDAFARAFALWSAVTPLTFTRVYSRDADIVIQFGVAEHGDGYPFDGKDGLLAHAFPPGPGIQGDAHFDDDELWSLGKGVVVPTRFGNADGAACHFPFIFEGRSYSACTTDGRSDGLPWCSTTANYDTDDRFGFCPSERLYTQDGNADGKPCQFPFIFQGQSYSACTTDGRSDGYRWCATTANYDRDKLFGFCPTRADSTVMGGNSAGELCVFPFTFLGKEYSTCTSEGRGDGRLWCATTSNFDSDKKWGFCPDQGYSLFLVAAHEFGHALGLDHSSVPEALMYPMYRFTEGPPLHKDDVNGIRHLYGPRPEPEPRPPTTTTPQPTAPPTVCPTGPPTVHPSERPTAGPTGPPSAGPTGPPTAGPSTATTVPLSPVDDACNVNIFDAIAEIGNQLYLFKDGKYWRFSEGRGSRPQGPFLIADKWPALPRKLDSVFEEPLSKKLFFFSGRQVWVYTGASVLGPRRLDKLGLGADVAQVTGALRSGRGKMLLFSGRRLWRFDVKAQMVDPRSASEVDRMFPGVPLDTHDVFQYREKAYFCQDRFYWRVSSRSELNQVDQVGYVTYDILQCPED
T6 sequence (P14780 20-707 R574P): as above

Broadly, the Kd is the free concentration of one partner at which half of the binding sites on the other are occupied at equilibrium, for simple one-to-one binding. In the case of `CC(C)Oc1ccc(C(N)=O)cc1Nc1nc(-c2ccc(N3CCN(C)CC3)nc2)cs1` [Example 27, 4-Isopropoxy-3-{4-[6-(4-methyl-piperazin-1-yl)-pyridin-3-yl]-thiazol-2-ylamino}-benzamide.TFA], the values for the IC50 in experiment [1] and in experiment [4] were 0.9 µM and 0.15 µM, respectively. Moreover, the figures for the Kd in experiment [2], in experiment [3] and in experiment [5] were 0.38 µM, 0.28 µM and 0.039 µM, respectively.
On to `CC(C)Oc1ccc(C(N)=O)cc1Nc1nc(-c2ccccn2)cs1` [Example 14, 4-Isopropoxy-3-(4-pyridin-2-yl-thiazol-2-ylamino)-benzamide], for which the dissociation constant (Kd) in experiment [2] came out at 1.9 µM; in experiment [3], 0.93 µM; in experiment [5], 0.21 µM. Besides, the IC50 in experiment [4] was found to be 0.5 µM.
The like results for `COc1ccc(C#N)cc1Nc1nc(-c2cccnc2)cs1` [Example 9, 4-Methoxy-3-(4-pyridin-3-yl-thiazol-2-ylamino)-benzonitrile.HBr] were, in that order, 43 µM, 18 µM, 7.4 µM and 2.6 µM.
The corresponding values for `CC(C)Oc1ccc(C(N)=O)cc1Nc1nc(-c2ccc(Cl)nc2)cs1` [Example 26, 3-[4-(6-Chloro-pyridin-3-yl)-thiazol-2-ylamino]-4-isopropoxy-benzamide.TFA] are 3.3 µM, 0.25 µM, 0.32 µM and 0.68 µM.
The corresponding values for `COc1ccc(S(N)(=O)=O)cc1Nc1nc(-c2cccnc2)cs1` [Example 12, 4-Methoxy-3-(4-pyridin-3-yl-thiazol-2-ylamino)-benzenesulfonamide.TFA] are 29 µM, greater than 95 µM, 17 µM and greater than 20 µM.
`CC(C)Oc1ccc(C(N)=O)cc1Nc1nc(-c2cncc(Br)c2)cs1` [Example 22, 3-[4-(5-Bromo-pyridin-3-yl)-thiazol-2-ylamino]-4-isopropoxy-benzamide.TFA]: the values for the Kd in experiment [2], in experiment [3] and in experiment [5] were 5.7 µM, 2.9 µM and 1.3 µM, respectively. The compound also displayed an IC50 in experiment [4] of 4.6 µM.
With `CC(C)Oc1ccc(S(N)(=O)=O)cc1Nc1nc(-c2cccnc2)cs1` [Example 13, 4-Isopropoxy-3-(4-pyridin-3-yl-thiazol-2-ylamino)-benzenesulfonamide.TFA], the equilibrium dissociation constant (Kd) in experiment [2] came to 10 µM; in experiment [3], 1.2 µM; in experiment [5] it was 2.3 µM. This compound also returned an IC50 in experiment [4] of 2.4 µM.
As to `COc1ccc([N+](=O)[O-])cc1Nc1nc(-c2cccnc2)cs1` [Example 60, (2-Methoxy-5-nitro-phenyl)-(4-pyridin-3-yl-thiazol-2-yl)-amine], the IC50 in experiment [6] came to 5.5 µM. Further, the Kd was greater than 95 µM in experiment [2], 78 µM in experiment [3] and greater than 95 µM in experiment [5].
With `Cc1cc(C)c(-c2csc(Nc3cc(C(N)=O)ccc3OC(C)C)n2)c(C)n1` [Example 19, 4-Isopropoxy-3-[4-(2,4,6-trimethyl-pyridin-3-yl)-thiazol-2-ylamino]-benzamide.TFA], the figures for the equilibrium dissociation constant (Kd) in experiment [2], in experiment [3] and in experiment [5] were 14 µM, 6.2 µM and 27 µM, respectively. Besides, in experiment [4], the IC50 is roughly 4 µM.
The like results for `CC(C)Oc1ccc(C(N)=O)cc1Nc1nc(-c2cnccc2C(C)C)cs1` [Example 23, 4-Isopropoxy-3-[4-(4-isopropyl-pyridin-3-yl)-thiazol-2-ylamino]-benzamide.TFA] were, in that order, 18 µM, 12 µM, 11 µM and roughly 14 µM.
The corresponding values for `CC(C)Oc1ccc(C(N)=O)cc1Nc1nc(-c2ccc(Br)nc2)cs1` [Example 20, 4-Isopropoxy-3-[4-(6-bromo-pyridin-3-yl)-thiazol-2-ylamino]-benzamide.TFA] are 3.3 µM, 0.23 µM, 0.34 µM and 0.64 µM.
The like results for `COc1ccc(C(N)=O)cc1Nc1nc(-c2cccnc2)cs1` [Example 4, 4-Methoxy-3-(4-pyridin-3-yl-thiazol-2-ylamino)-benzamide.HBr] were, in that order, 3.3 µM, 12 µM, 1.3 µM and 5 µM.
Regarding `Cc1nc(C(F)(F)F)ccc1-c1csc(Nc2cc(C(N)=O)ccc2OC(C)C)n1` [Example 24, 4-Isopropoxy-3-[4-(2-methyl-6-trifluoromethyl-pyridin-3-yl)-thiazol-2-ylamino]-benzamide.TFA], the figures for the dissociation constant Kd in experiment [2], in experiment [3] and in experiment [5] were greater than 95 µM, 3.7 µM and 2.2 µM, respectively. The IC50 in experiment [4] was roughly 3 µM.

The record behind these values is US20120129843A1, “PYRIDYL-THIAZOLYL INHIBITORS OF PRO-MATRIX METALLOPROTEINASE ACTIVATION” (priority 2010, published 2012).
